The values that follow come from PMC11714206, “Massively Parallel Screening of Toll/Interleukin‐1 Receptor (TIR)‐Derived Peptides Reveals Multiple Toll‐Like Receptors (TLRs)‐Targeting Immunomodulatory Peptides” (Advanced Science, 2024).

The test deals with T1, MAL^TIR (Homo sapiens, UniProt P58753).
T1 construct: MAL (residues 79–221); 6xHis; made in house; host or cells: E. coli BL21 (DE3)
Put plainly: T‐Surf phage library (P8 and P3) selection against MAL^TIR, four rounds, NGS read counts. It counts as binding. The settings on record: for P3_MAL Rank (after) / P3_MAL Rank (before): P3 library; for P8_MAL Rank (after) / P8_MAL Rank (before): P8 library; for Population: 4th round of selection against MAL TIR, share of NGS reads. On the procedure: T‐Surf libraries were screened against the immobilized TIR domains of two major human TLR adaptor proteins, MAL^TIR and MyD88^TIR, allowing cross‐species selection of TIR‐binding motifs with 190 946 TIR‐derived peptides in a single binding assay (Scheme 1). Enriched phage pools from the fourth round of selection were analyzed using NGS after barcoding the peptide‐coding regions of the phage pools.
Phage display screening was performed by coating two wells of a 96‐well plate (Maxisorp, Thermo Fisher Scientific) with 100 µL of 5 µg mL^−1 TIR domains overnight; then, the coated wells were blocked with 200 µL of blocking buffer (0.2% BSA in PBS) and set aside for 1 h at 4 °C with gentle shaking. Next, 100 µL of the phage library was added to the wells and incubated for 1 h at room temperature (RT; 20 – 22 °C) with gentle shaking. The plate was washed four times with PBS containing 0.5% Tween‐20; the bound phages were eluted by adding 100 µL of 100 mM HCl to each well. The elute was neutralized with 10 µL of 1.0 M Tris‐HCl (pH 11.0). E. coli TG1 cells were grown to the log phase (A600 = ≈0.6), and 1 mL of the culture was incubated with 100 µL of the eluted phages for 30 min at 37 °C, with shaking at 200 rpm. Next, 1 µL of M13KO7 helper phages was added, followed by incubation for 45 min at 37 °C, with shaking. Subsequently, the cells were transferred to 25 mL of 2× yeast extract tryptone/carbenicillin/kanamycin medium and incubated overnight at 37 °C with shaking at 200 rpm. The amplified phages were precipitated with 20% PEG‐8000/2.5 M NaCl to be used for the next round of selection.
The naïve T‐Surf libraries in P8 and P3 and the enriched phage pools after four rounds were barcoded for NGS as previously described.^[ [59] ^] Briefly, 5 µL of the phage pool was used as a template for 20 cycles of a 50 µL PCR reaction using […] each of forward and reverse barcoded primers and PrimeSTAR Max DNA Polymerase. The PCR products were purified using Expin Gel SV (GeneAll). The NGS samples were quantified using qPCR, following the qPCR Quantification Protocol Guide (KAPA Library Quantification kits for Illumina Sequencing Platform), and qualified using the TapeStation High Sensitivity D1000 ScreenTape (Agilent Technologies). The indexed libraries were further sequenced by Macrogen (Seoul, Republic of Korea) using the NovaSeq platform (Illumina) with 100 bp paired‐end reads. The reads were demultiplexed by barcodes and filtered for an average Phred quality score of at least 30, followed by trimming the flanking consensus sequences using Cutadapt (version 2.3). Peptide sequence populations were analyzed according to the read counts.

Setting [1] is: selection against MAL TIR, rank by count after grouping.
Setting [2] is: selection against MAL TIR, rank by count before grouping.
Setting [3] is: selection against MAL, rank by count after grouping.
The mark [4] stands for this setting: selection against MAL, rank by count before grouping.
Setting [5] is: selection against MAL, rank after grouping.
Where [6] appears, read: selection against MAL, rank before grouping.
[7] abbreviates: 4R selection against MAL, rank after grouping.
Where [8] appears, read: 4R selection against MAL, rank before grouping.
Setting [9] is: P8_MAL: rank by count after grouping.
The mark [10] stands for this setting: P8_MAL: rank by count before grouping.
The mark [11] stands for this setting: P3_MAL: rank by count after grouping.
[12] abbreviates: P3_MAL: rank by count before grouping.
Where [13] appears, read: P3_MAL pool: P3 T-Surf phage library.

T1 sequence (P58753 79-221): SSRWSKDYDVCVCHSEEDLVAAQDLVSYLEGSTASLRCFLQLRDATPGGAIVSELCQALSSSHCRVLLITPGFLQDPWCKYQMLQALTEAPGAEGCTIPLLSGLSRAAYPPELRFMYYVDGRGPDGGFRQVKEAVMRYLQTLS

Consider YAFTGHLHRYLVQPGG, for which the “P3_MAL Rank (after)” value under setting [1] amounted to 249. The “P3_MAL Rank (before)” value under setting [2] is given as 1409.
Turning to AFLYSLLFNRTHPNYF, the “P8_MAL Rank (after)” value under setting [3] worked out at 702. Moreover, the “P8_MAL Rank (before)” value under setting [4] is on record as 1809.
As for NYASSSWALDELWNIF, the “P8_MAL Rank (after)” value under setting [5] is 502. In addition, the “P8_MAL Rank (before)” value under setting [6] worked out at 2655.
YNFISHLYAALQRKHVET: the “P3_MAL Rank (after)” value under setting [1] is 253. The “P3_MAL Rank (before)” value under setting [2] is 754.
For the sequence HQARWNRPWAKLKPPT, the “P3_MAL Rank (after)” value under setting [7] is recorded as 626. For the same sequence, the “P3_MAL Rank (before)” value under setting [8] worked out at 2895.
With SSFTSHLYDRLQRSGI, the “P3_MAL Rank (after)” value under setting [1] is given as 224. For the same sequence, the “P3_MAL Rank (before)” value under setting [2] was 3203.
For the sequence TFLGHLYNALVQTGIP, the “Rank (after)” value under setting [9] stood at 112. Moreover, the “Rank (before)” value under setting [10] was 2569.
Take VGWFLHTLSQHILKREK: the “Rank (after)” value under setting [11] is given as 168. Besides, the “Rank (before)” value under setting [12] worked out at 528.
Consider AFLGAQLKSVLGKPTM, for which the “P8_MAL Rank (after)” value under setting [5] was 554. Besides, under setting [6], the “P8_MAL Rank (before)” value is given as 1775.
RNNFIGHLYQAPNQSV: under setting [3], the “P8_MAL Rank (after)” value is 699. Further, the “P8_MAL Rank (before)” value under setting [4] came out at 2283.
For AFLYTFLLNLTHPTHF, under setting [9], the “Rank (after)” value is 162. The “Rank (before)” value under setting [10] worked out at 1829.
On to HFFWFKLKSILGETSF, for which, under setting [5], the “P8_MAL Rank (after)” value was found to be 542. Also, under setting [6], the “P8_MAL Rank (before)” value was determined as 2394.
For the sequence LGFFCNQAKALSDRGI, the “Rank (after)” value under setting [11] was determined as 435. Moreover, the “Rank (before)” value under setting [12] is 2116.
For the sequence NRWRNALTAAANLSGW, the Population under setting [13] was found to be 0.00376%.
For the sequence AFLYTFLINLTHKPTF, under setting [1], the “P8_MAL Rank (after)” value came out at 228. The “P8_MAL Rank (before)” value under setting [2] amounted to 1866.
Sequence AFLYTFPINLTHPTNF came in with a Population (P8_MAL pool: P8 T-Surf phage library) of 0.0034%.
For the sequence PNLRTKVLAYLNRTKT, the “P3_MAL Rank (after)” value under setting [1] is on record as 240. For the same sequence, under setting [2], the “P3_MAL Rank (before)” value is on record as 2701.
In the case of WHFHLRLRMPDPLQKI, the “Rank (after)” value under setting [11] came out at 432. In addition, under setting [12], the “Rank (before)” value is recorded as 1297.
On to FLNFRGLDVRNYFLGH, for which the “P8_MAL Rank (after)” value under setting [5] amounted to 560. Besides, the “P8_MAL Rank (before)” value under setting [6] is recorded as 1088.
On to SEFIQKIILCMNQKIV, for which, under setting [9], the “Rank (after)” value came to 155. Also, the “Rank (before)” value under setting [10] came to 2458.
RGFREGLWRLLELSKK had a Population under setting [13] of 0.00902%. Also, under setting [11], the “Rank (after)” value came to 103. For the same sequence, under setting [12], the “Rank (before)” value is recorded as 111.
For the sequence KRFWERLRYMLPHSSL, the “P3_MAL Rank (after)” value under setting [1] was 242. Also, the “P3_MAL Rank (before)” value under setting [2] amounted to 3466.
In the case of YAFTGHLHRYLVQRGEP, the “Rank (after)” value under setting [11] is 443. Moreover, the “Rank (before)” value under setting [12] worked out at 1397.
As to CFLQNLCYALTYRPAT, the “P3_MAL Rank (after)” value under setting [7] was found to be 637. The “P3_MAL Rank (before)” value under setting [8] came to 1215.
On to AFLDPFLITLIQASNF, for which the “P8_MAL Rank (after)” value under setting [5] is recorded as 505. Also, the “P8_MAL Rank (before)” value under setting [6] was determined as 1908.
SSFREGLWRRLELSKK: under setting [13], the Population was 0.00488%.
Turning to LKVESWLQTLAKAGKL, the “P3_MAL Rank (after)” value under setting [3] is reported as 763. Further, under setting [4], the “P3_MAL Rank (before)” value was 2262.
KEVEGWRDALAKVASP: the “P3_MAL Rank (after)” value under setting [5] was 576. The “P3_MAL Rank (before)” value under setting [6] came to 3557.
Regarding PNLRTTVQNYLMRTKT, the “P3_MAL Rank (after)” value under setting [1] is given as 216. The “P3_MAL Rank (before)” value under setting [2] is listed as 2690.
Take YNFISHLHRYLVQRGV: under setting [5], the “P3_MAL Rank (after)” value was 562. In addition, under setting [6], the “P3_MAL Rank (before)” value stood at 1581.
Take SLFCNKLRYHLPAPQH: under setting [1], the “P3_MAL Rank (after)” value is 214. Further, under setting [2], the “P3_MAL Rank (before)” value was 3027.
For the sequence AFLCAHLKSVLGNPTI, under setting [9], the “Rank (after)” value was 461. Moreover, the “Rank (before)” value under setting [10] is recorded as 1804.
In the case of WFYERMVSMILRDTKV, the “P8_MAL Rank (after)” value under setting [1] came out at 280. For the same sequence, under setting [2], the “P8_MAL Rank (before)” value is on record as 1261.
